Test results as given in patent publication US11747325B2, “Bleomycin for mimicking the effect of ionizing radiations on T cells” (Novagray, priority 2018, dated 2023).

What was measured:
T lymphocytes [1] = assay: Bleomycin-induced CD8 T-lymphocyte apoptosis, treatment from the start of blood cell culture (at least 50 hours contact), flow cytometry; assay type: cell-based, human; details: for T lymphocytes apoptosis rate, from the start of cell culture: same blood sample, 8 Gy irradiation control 28.2%
Protocol: (§1) Blood samples were purchased from Etablissement Français du Sang (EFS) with the convention number 21PLER2016-0100 AV01. Blood samples were collected from healthy donors in 5 mL heparinized tubes without separation gel.
(§2) Blood cells were grown in RPMI-1640 with glutamax (Fisher scientific, France) supplemented with 20% fetal calf serum (FCS) (EuroBio, France). Cells were maintained at 37° C. with 5% CO2 during the experiments.
(§3) Bleomycin (EuroMedex) was solubilized in sterile MilliQ water at 50 mg/mL according to manufacturer instructions and stored at −80° C.
(§4) Samples were then centrifuged for 5 min at 300 g. The pellets were resuspended in phosphate-buffered saline (PBS) containing 10 μl of anti-human CD8-FITC antibody (Becton Dickinson, USA) and incubated for 20 minutes at room temperature. Then, red blood cells were lysed by addition of 4 ml of lysis buffer diluted 1:10 in water (Becton Dickinson, USA). After another 20 minutes incubation time at room temperature, samples were centrifuged for 5 min at 300 g and the pellets were washed with 3 ml of PBS. Pellets were suspended in 200 μl of PBS containing 25 μg/ml of propidium iodide (Sigma, France) and 5 μl of RNAse A at 10 mg/ml (Qiagen, France). The samples were analyzed by flow cytometry within the next hours, using the CytoFlex (Beckman Coulter, USA). […]
Two hundred microliters of blood were aliquoted into a 6-well plate containing 2 mL of RPMI-20% FCS-bleomycin, about 24 hours after blood collection. The cell culture media containing the different concentrations of bleomycin were made fresh just before starting the cell culture. After bleomycin incubation with blood cells for at least 50 hours (generally more than about 60 hours, in particular between 65 and 75 hours), samples were stained for flow cytometry analysis as described above.
(§5) Two treatment conditions were tested on the same blood sample: blood cells were treated by several bleomycin concentrations 24 hours after cell culture or from the start of cell culture. A control experiment was performed by irradiating blood samples at 8 Gy.

T lymphocytes [2] = assay: Bleomycin-induced CD8 T-lymphocyte apoptosis, treatment 24 hours after blood cell culture (less than 50 hours contact), flow cytometry; assay type: cell-based, human; details: for T lymphocytes apoptosis rate, 24 hours after cell culture: staining 48 hours after treatment, same blood sample, 8 Gy control 28.2%
Protocol: as §1, §2, §3, §4
Two hundred microliters of blood were aliquoted into a 6-well plate containing 2 mL of RPMI-20% FCS, about 24 hours after blood collection. Bleomycin treatment, at the different concentrations, was performed 24 hours after blood cell culture by adding the Bleomycin directly into the wells. The staining for detecting apoptosis was performed as described above and 48 hours after the bleomycin treatment (thus, after less than 50 hours of contact of bleomycin with the cells). • Treatment during blood cell culture:
as §5

Bleomycin
T lymphocytes apoptosis rate, from the start of cell culture (T lymphocytes [1]; bleomycin 50 μg/mL): 12.47% | T lymphocytes apoptosis rate, from the start of cell culture (T lymphocytes [1]; bleomycin 100 μg/ml): 19.14% | T lymphocytes apoptosis rate, from the start of cell culture (T lymphocytes [1]; bleomycin 200 μg/ml): 23.44% | T lymphocytes apoptosis rate, from the start of cell culture (T lymphocytes [1]; bleomycin 300 μg/ml): 26.32% | T lymphocytes apoptosis rate, from the start of cell culture (T lymphocytes [1]; bleomycin 400 μg/ml): 30.68% | Bleomycin concentration achieving the apoptosis rate obtained after 8 Gy irradiation (T lymphocytes [1]; treatment applied at the start of blood cell culture): lower than 300 μg/ml | T lymphocytes apoptosis rate, 24 hours after cell culture (T lymphocytes [2]; bleomycin 50 μg/mL): 3.98% | T lymphocytes apoptosis rate, 24 hours after cell culture (T lymphocytes [2]; bleomycin 100 μg/ml): 2.72% | T lymphocytes apoptosis rate, 24 hours after cell culture (T lymphocytes [2]; bleomycin 200 μg/ml): 10.13% | T lymphocytes apoptosis rate, 24 hours after cell culture (T lymphocytes [2]; bleomycin 300 μg/ml): 11.9% | T lymphocytes apoptosis rate, 24 hours after cell culture (T lymphocytes [2]; bleomycin 400 μg/ml): 16.78% | Whether the apoptosis rate observed after 8 Gy irradiation is induced (T lymphocytes [2]; treatment 24 hours after blood cell culture, applied for less than 50 hours, 50 to 500 μg/mL): no bleomycin concentration, applied for less than 50 hours, induces the apoptosis rate observed after 8 Gy irradiation
